Results on seven molecules are retold here after patent publication US5886027A, “Fungicidal compounds” (BTG International Limited, priority 1995, dated 1999).

The conditions of data set [1]: Jacobsen and Wengel, Pestic. Sci., 1986, 17, 686-690; cited from earlier work.
In a further data set the test system is Botrytis cinerea. The data set can be described thus: microbe, parasite or virus in culture. It counts as cell-based, Botrytis cinerea (grey mould).
For data set [2], the system named is Pseudocercosporella herpotrichoides. The data set is described as follows: microbe, parasite or virus in culture. The data set is classed as cell-based, Pseudocercosporella herpotrichoides (eyespot).
Another data set concerns Fusarium graminearum. The data set is described as follows: microbe, parasite or virus in culture. It counts as cell-based.
For data set [3], the system named is Pseudocercosporella herpotrichoides. The data set is described as follows: Further in vitro assay, W-type and R-type isolates of Pseudocercosporella herpotrichoides. The data set is classed as cell-based.
For a further data set, the system named is Rhizoctonia solani. The data set can be described thus: microbe, parasite or virus in culture. It counts as cell-based.
The test system of the next data set is Pyricularia oryzae. The data set can be described thus: microbe, parasite or virus in culture. It counts as cell-based.
Another data set relates to Aspergillus niger. The data set is described as follows: microbe, parasite or virus in culture. It counts as cell-based.
The subject of data set [4] is Erysiphe graminis f.sp hordei. Set-up: species or system Erysiphe graminis f.sp hordei (barley powdery mildew). The conditions noted are these: in vivo.
The test system of the next data set is Septoria tritici. The data set can be described thus: microbe, parasite or virus in culture. It counts as cell-based, Septoria tritici (wheat leaf blotch).
The subject of another data set is 14 day old seedlings. The data set is described as follows: Phytotoxic effects on sprayed 14 day old seedlings. The data set is classed as in vivo, barley. The conditions noted are these: dosage levels below those currently used for triazole fungicides.
The test system of another data set is Rhynchosporium secalis. The data set is classed as cell-based, Rhynchosporium secalis (barley leaf blotch).
A further data set has as its system Neurospora crassa. The data set is described as follows: microbe, parasite or virus in culture. It counts as cell-based.
The next data set relates to Fusarium sulphureum. The data set is described as follows: Further in vitro assay, isolates of Fusarium sulphureum. To be noted: F. sulphureum, Table 2(f). The data set is classed as cell-based.
In another data set the test system is Helminthosporium solani. The data set can be described thus: Further in vitro assay, isolates of Helminthosporium solani. The data set is classed as cell-based. To be noted: H. solani, Table 2(e).
Another data set deals with Ustilago maydis. The data set can be described thus: microbe, parasite or virus in culture. It counts as cell-based, Ustilago maydis (maize smut).
The mark [5] stands for this setting: Rhizoctonia solani, read-out: % inhibition of growth in colony diameter.
The mark [6] stands for this setting: read-out: % inhibition of growth in colony diameter.
Where [7] appears, read: Aspergillus niger, read-out: % inhibition of growth in colony diameter.

In brackets after ≈: the same amount, converted by molar mass.

As for `CC(C)c1cc2c(o1)C(=O)c1ccccc1C2=O` [(A)], the fungicidal activity entry in data set [1] was “inactive”.
Regarding `CCC1(CC)CC2=C(O1)C(=O)c1ccccc1C2=O` [(B)], the fungicidal activity result in data set [1] was “intermediate fungicidal activity”.
For `c1ccc2[nH]cnc2c1` [Benzimidazole], the “Sensitivity (S/R)” value in the data set with Botrytis cinerea was “R and S”. The “Sensitivity (R)” value (in [2]; in the data set on Fusarium graminearum (isolate JF18)) was “R” each time.
`COC(=O)Nc1nc2ccccc2[nH]1` [Carbendazim, reference compound]: the “Sensitivity to Carbendazim” value in data set [3] (R-type isolate (first line)) is on record as “Sensitive”; in data set [3] (R-type isolate (second line)), “Resistant”; in data set [3] (W-type isolate (first line)), “Sensitive”; in data set [3] (W-type isolate (second line)), “Resistant”. Moreover, the inhibition (as a rule, the share of the control response that was lost under treatment) at 1 µg/mL in the data set with Rhizoctonia solani (setting [5]) turned out to be 3.3%; with Pyricularia oryzae (setting [6]), 14.7%. In addition, the inhibition at 4 µg/mL with Rhizoctonia solani (setting [5]) came to 81.2%; in the data set with Pyricularia oryzae (setting [6]) it was 99.4%.
Consider `CCCN(CCOc1c(Cl)cc(Cl)cc1Cl)C(=O)n1ccnc1` [Prochloraz, reference compound], for which, in the data set on Aspergillus niger (Aspergillus niger, 1 mg/l, read-out: % inhibition of growth in colony diameter), the inhibition at 1 µg/mL was 97.1%.
Take `CC(C)(C)C(O)C(Oc1ccc(Cl)cc1)n1cncn1` (stereo not drawn) [Triadimenol]: the “Sensitivity of isolate (S/R)” value in [4] was “S and R”.
Consider `CC1OC2=C(C(=O)C(=O)c3ccccc32)C1(C)C` (stereo not drawn) [dunnione], for which the “anti-fungal activity (in words)” value in the data set on Botrytis cinerea is recorded as “some activity”; with Septoria tritici, “active”; in the data set on Rhynchosporium secalis, “active”; with Neurospora crassa, “Significant activity”; in the data set on Fusarium graminearum (Fusarium graminearum), “some activity”; in the data set on Ustilago maydis, “active”. Further, the IC50 in the data set with Botrytis cinerea (Botrytis cinerea, read-out: Sensitivity ED50) is > 20 µg/mL; in data set [2] (Oculimacula yallundae, read-out: Sensitivity ED50), 17 µg/mL (≈ 70.2 µM); with Neurospora crassa (Neurospora crassa, read-out: ED50), 2 µg/mL (≈ 8.26 µM); in the data set with Fusarium graminearum (Fusarium graminearum, read-out: Sensitivity ED50) it was 20 µg/mL (≈ 82.6 µM); with Ustilago maydis (Mycosarcoma maydis, ATCC14826, read-out: ED50) it was 3 µg/mL (≈ 12.4 µM). Also, the “fungicidal activity (in words)” value in data set [3] (Pseudocercosporella herpotrichoides) is recorded as “inconsistent”; in the data set with Rhizoctonia solani it was “active”; in the data set with Pyricularia oryzae it was “active”; in the data set on Aspergillus niger, “active”. The cross-resistance with carbendazim entry in [3] (Table 2(d)) is on record as “no evidence of cross-resistance”. Further, the “level of activity compared with azole fungicides currently in use” value in the data set on Septoria tritici is given as “similar, or better”; with Rhynchosporium secalis it was “similar, or better”; in the data set on Ustilago maydis, “similar, or better”. Also, in the data set on Septoria tritici (Zymoseptoria tritici, read-out: Sensitivity MIC), the MIC was found to be 5 µg/mL (≈ 20.6 µM). Further, the phytotoxic effects entry in the data set on 14 day old seedlings is reported as “no noticeable phytotoxic effects”. In addition, the inhibition at 4 µg/mL in the data set on Rhizoctonia solani (setting [5]) came to 37%; in the data set on Pyricularia oryzae (setting [6]), 75%; in the data set on Aspergillus niger (setting [7]), 30%. Moreover, the inhibition at 20 µg/mL with Rhizoctonia solani (setting [5]) is 93%; in the data set on Pyricularia oryzae (setting [6]), 99%; in the data set on Aspergillus niger (setting [7]), 99%. Moreover, the inhibition at 100 µg/mL in the data set with Rhizoctonia solani (setting [5]), in the data set on Pyricularia oryzae (setting [6]) and with Aspergillus niger (setting [7]) was 100% each time. In data set [4], the “fungicidal effect (in words)” value is given as “fungicidally effective”. Also, the cross-resistance with thiabendazole entry in the data set on Fusarium sulphureum and in the data set on Helminthosporium solani was “no evidence of cross-resistance” in each case.
